Test results published in patent US20260048151A1, “HEMICYANINE PUSH-PULL DYES BASED ON CHROMENE ELECTRON DONORS” (UNIVERSITY OF CONNECTICUT, priority 2022, published 2026).

Columns and labels:
[1] = Absorption and emission spectra, fluorescence quantum efficiency in EtOH, PBS and lipid vesicles (MLV); assay type: physicochemical; settings: for Fluorescence quantum efficiency (FQE): in lipid vesicle suspensions; for emission maximum: membrane-bound (MLV)
Protocol: FIGS. 2A-2C are plots showing absorption and emission spectra of 2a, in comparison with ElectroFluor630, in various solvent environments: MLV, EtOH, and PBS. Multilamellar lipid vesicle suspension (MLV) was prepared by sonicating soybean phosphatidylcholine in PBS buffer (2 mg/mL) to mimic the cell membrane environment. The emission spectra in ethanol and PBS buffer were scaled 10 and 20 times respectively relative to the emission spectra in MLV. Excitation wavelength is 580 nm for emission spectra.
All chemicals were purchased from commercial sources (Sigma Aldrich, Acros, TCI America, Combi-Blocks, and others) and used without further purification. Column chromatography was generally performed on COMBIFLASH NextGen 300 using normal phase silica columns except that for some final dye products amine silica columns were used. Thin layer chromatography (TLC) was carried out on EM 60 F-254 plastic TLC plates. NMR spectra were recorded on Varian 400 MHz, 500 MHz, and 800 MHz instruments at the UConn Heath Structural Biology Facility. All spectra are referenced internally to TMS or residual solvent signals. Electrospray ionization (ESI) high-resolution mass spectra (HRMS) were obtained on a QStar Elite (AB Sciex) at the Department of Chemistry, University of Connecticut. UV/Vis absorption spectra were recorded on a UV-Visible spectrophotometer (Shimadzu, UV-1601PC) and fluorescence emission spectra on a Horiba Fluorolog spectrofluorometer (Horiba, Inc., Edison, NJ). Fluorescence quantum yield for dyes was determined by a relative method using Rhodamine 6G (excited at 480 nm, FQY=0.95 in EtOH) or cresyl violet (excited at 580 nm, FQY=0.54 in MeOH) as the references.
Absorbance and the fluorescence properties of the new VSDs were determined. The absorption and emission spectra for 2a, together with ElectroFluor630, in aqueous buffer (PBS), ethanol, and when intercalated in the membrane of lipid vesicles are shown in FIGS. 2A-C. […] This is particularly advantageous for fluorescence imaging because background fluorescence from unbound dye is negligible. Another characteristic of the hemicyanine VSDs that is preserved by 2a in FIGS. 2A-C is the large Stokes shift between the excitation and emission maxima. 125 nm for the membrane-bound dye. This is also a benefit for fluorescence detection and imaging, as the fluorescence can be readily filtered from scattered exciting light. The broad wavelength window afforded by the spectra is also an important benefit for the design of experiments with multiple fluorescent sensors. For comparative purposes, certain VSDs are shown below.
As expected, the spectra are largely insensitive to alkyl substitution. Table 1 also includes data for ElectroFluor630 (aka Di-4-ANEQ (F) PTEA) for comparison. The absorption maxima of 2a in ethanol (EtOH), aqueous buffer (PBS) and when bound to lipid membranes (multilamellar vesicles, MLV) are red shifted by 77 nm, 63 nm and 63 nm, respectively, relative to ElectroFluor630, which is isostructural to 2a. […] The absorption and emission spectra of 2a, 2b, and 2c are all shifted to the red by 50-65 nm relative to ElectroFluor630.

[2] = Voltage sensitivity on voltage-clamped hemispherical lipid bilayer; settings: for Ex (excitation wavelength of optimal voltage sensitivity) / Voltage Sensitivity ΔF/F per 100 mV: long pass emission filter; for Voltage Sensitivity ΔF/F per 100 mV: magnitude at optimal Ex/Em
Excerpt: It is known that optimal voltage sensitivity can be obtained by measuring the compounds on a voltage-clamped hemispherical bilayer apparatus. The apparatus can include a patch-clamp amplifier, such as a HEKA EPC-8 patch-clamp amplifier. Measurements can be obtained by stepping the membrane potential between two different potentials for a set time lapse. such as, for example, −110 and −60 mV every 10 ms.
Testing VSDs in a voltage-clamped hemispherical lipid bilayer allows one to determine the sensitivity of the VSDs as a function of excitation wavelength. This system has a Teflon tube filled with KCl and is immersed in a KCl solution in a cuvette. A lipid bubble is blown at the tip of the tube and spontaneously forms a bilayer membrane. The VSD to be tested is introduced on one side of the bilayer, usually in the cuvette. Electrodes in the tube and in the cuvette allow the imposition of a voltage across the membrane and a tungsten lamp coupled to a monochromator allows excitation wavelength dependence of the fluorescence response to voltage steps to be determined. This screening approach has allows for the comparison of the efficacy of newly developed VSDs in a well-controlled, consistent manner and to also determine excitation and emission wavelengths with optimal.
Voltage sensitivities of 2a as a function of voltage is shown in FIG. 3A for excitation at 730 nm and 570 nm. The voltage response is linear over the range of −100 mV to +100 mV; 570 nm is slightly to the blue of the isosbestic point, accounting for the weak but inverted sensitivity at this wavelength. […] This opposite polarity at the blue and red edges underlies the ability to use electrochromic hemicyanine dyes for dual-wavelength ratio imaging. The precise location of the isosbestic point in the excitation wavelength depends on the emission filter used because the emission spectrum is also voltage dependent for hemicyanine dyes.
The magnitude and wavelengths of the optimal voltage sensitivities of all the VSDs on the voltage-clamped hemispherical bilayer are included in the third column of Table 1.

[3] = as above; settings: 560 nm excitation
[4] = Optimal excitation wavelengths of existing VSDs; assay type: physicochemical
in-vivo pig heart = settings: translational in-vivo pig model (Lee, et al., 2019); cited from earlier work
AtT20 cells = test: Voltage sensitivity in patch clamped tissue culture cells; assay type: cell-based
Excerpt: We were motivated by separate requests from a company, Tara Biosystems, and the academic lab of Dr. Jack Rogers (see letters of support), for cardiac applications requiring recording over the course of longer than a full day. This will require dyes with both improved persistence (i.e. long washout times) and photostability (to allow for recording over long periods without appreciable bleaching or phototoxicity). We addressed these requirements via synthesis of a fluorinated chromophore (to improve photostability) with lengthened alkyl chains (to improve the strength of membrane binding and therefore persistence); we are calling it ElectroFluor630p™ (630 for the optimal excitation wavelength and p for persistent). ElectroFluor630p™ is similar to ElectroFluor630™, except that the butyl chains have been replaced with pentyl chains. We characterized this new VSD on both our voltage clamped hemispherical bilayer and on AtT20 cells. […] In addition, we will follow-up on these measurements extending the excitation wavelengths to include 660 nm. This is expected to further increase sensitivity and is an important wavelength for commercialization since the Photoswitch Bolt system, which is being sold for high-throughput cardiac safety screening studies (see letter from Stephen Smith), uses 660 nm laser excitation.
Turning to Preliminary Results for Aim 2. we have already described our characterization of a new VSD in patch clamped tissue culture cells in FIG. 2.

[5] = in MLV (multilamellar lipid vesicles)

| Structure (SMILES) | absorption maximum ([1]; in EtOH) | absorption maximum [1, 5] | absorption maximum ([1]; in PBS) | Fluorescence quantum efficiency (FQE) [1] | emission maximum [1] | Ex (excitation wavelength of optimal voltage sensitivity) [2] | Voltage Sensitivity ΔF/F per 100 mV [2] | further results |
| --- | --- | --- | --- | --- | --- | --- | --- | --- |
| CCCCN(CCCC)c1ccc2cc(/C=C/c3cc[n+](CCCS(=O)(=O)[O-])cc3)ccc2c1 [Di-4-ANEPPS, reference compound] | 496 nm | 464 nm | 447 nm | 0.30 | 617 nm | 550 nm | 10% |  |
| CCCCN(CCCC)c1ccc2cc(/C=C/c3c(F)c[n+](CCC[N+](CC)(CC)CC)c4ccccc34)ccc2c1.[Br-].[Br-] [ElectroFluor630, Di-4-ANEQ (F) PTEA, reference compound] | 618 nm | 547 nm | 565 nm | 0.10 | 686 nm | 645 nm | 12% | optimal dual excitation, lower wavelength [4]: 470 nm; optimal dual excitation, upper wavelength [4]: 630 nm; phototoxicity (in-vivo pig heart): minimal phototoxicity |
| CCCCCN(CCCCC)c1ccc2cc(/C=C/c3c(F)c[n+](CCC[N+](CC)(CC)CC)c4ccccc34)ccc2c1.[Br-].[Br-] [ElectroFluor630p, Di-5-ANEQ(F)PTEA] |  |  |  |  |  |  |  | ΔF/F/100 mV (AtT20 cells; blue-edge excitation): +5.2%; ΔR/R/100 mV (ratio blue/red excitation) (AtT20 cells; ratio measurement): 29.3%; ΔF/F/100 mV (AtT20 cells; red-edge excitation): −19.4% |
| CCCCN(CCCC)c1ccc2cc(/C=C/C=C/c3cc[n+](CCC[N+](C)(C)C)c4ccccc34)ccc2c1.[Br-].[Br-] [di-4-ANBDQPQ] |  |  |  |  |  |  |  | optimal excitation [4]: 630 nm |

Continued, in another order:

| absorption maximum ([1]; in EtOH) | absorption maximum [1, 5] | absorption maximum ([1]; in PBS) | Fluorescence quantum efficiency (FQE) [1] | emission maximum [1] | Structure (SMILES) | Ex (excitation wavelength of optimal voltage sensitivity) [2] | Voltage Sensitivity ΔF/F per 100 mV [2] | further results |
| --- | --- | --- | --- | --- | --- | --- | --- | --- |
| 577 nm | 540 nm | 546 nm | 0.31 | 673 nm | CCCCN(CCCC)c1ccc2c(c1)OCC(/C=C/c1cc[n+](CCCS(=O)(=O)[O-])cc1F)=C2 [1a] | 660 nm | 12% | shift to the red of results relative to the FIG. 1 dye [2]: ~30 nm |
| 580 nm | 540 nm | 552 nm | 0.25 | 677 nm | CCCCCN(CCCCC)c1ccc2c(c1)OCC(/C=C/c1cc[n+](CCCS(=O)(=O)[O-])cc1F)=C2 [1b] | 640 nm | 8% |  |
| 579 nm | 534 nm | 515 nm | 0.22 | 675 nm | CCCCCCN(CCCCCC)c1ccc2c(c1)OCC(/C=C/c1cc[n+](CCCS(=O)(=O)[O-])cc1F)=C2 [1c] | 630 nm | 11% |  |
| 701 nm | 614 nm | 633 nm | 0.10 | 739 nm | CCCCN(CCCC)c1ccc2c(c1)OCC(/C=C/c1c(F)c[n+](CCC[N+](CC)(CC)CC)c3ccccc13)=C2.[Br-].[Br-] [2a] | 730 nm | 17% | red shift of absorption maximum relative to ElectroFluor630 ([1]; bound to lipid membranes (MLV)): 63 nm; red shift of absorption maximum relative to ElectroFluor630 ([1]; in aqueous buffer (PBS)): 63 nm; red shift of absorption maximum relative to ElectroFluor630 ([1]; in ethanol (EtOH)): 77 nm; fluorescence enhancement upon binding to lipid membranes ([1]; lipid membranes vs unbound dye): over 100 fold; fluorescence quantum efficiency despite bathochromic shift ([1]; membrane bound, vs ElectroFluor630): not diminished; Stokes shift between excitation and emission maxima ([1]; membrane-bound dye): 125 nm; ΔF/F/100 mV ([2]; 730 nm excitation): −17%; excitation wavelength of voltage sensitivity higher than any previous VSDs ([2]; at 730 nm): ~100 nm; voltage response of fluorescence ([2]; range −100 mV to +100 mV, excitation 730 nm and 570 nm): linear; ΔF/F/100 mV [3]: +3% |
| 700 nm | 611 nm | 628 nm | 0.10 | 736 nm | CCCCCN(CCCCC)c1ccc2c(c1)OCC(/C=C/c1c(F)c[n+](CCC[N+](CC)(CC)CC)c3ccccc13)=C2.[Br-].[Br-] [2b] | 720 nm | 10% |  |
